Source: patent publication US11236147B2, “Methods and compositions for the inhibition of TRPV4” (CHILDREN'S MEDICAL CENTER CORPORATION, priority 2013, dated 2022)
Entries after “also recorded” stand apart in the source; their conditions may differ.

Assays:
TRPV4 [1] = molecular target: T1, TRPV4 (Homo sapiens, UniProt Q9HBA0); assay: Calcium imaging: calcium influx by chemical stimulation (4α-PDD); format: cell-based
T1 construct: Transient increases in intracellular calcium were detected quickly after force application in HUVE cells treated with control siRNA; endogenous in cells; host or cells: HUVE cells (ATCC) treated with control or CD98 siRNA
T1 sequence (Q9HBA0 whole entry): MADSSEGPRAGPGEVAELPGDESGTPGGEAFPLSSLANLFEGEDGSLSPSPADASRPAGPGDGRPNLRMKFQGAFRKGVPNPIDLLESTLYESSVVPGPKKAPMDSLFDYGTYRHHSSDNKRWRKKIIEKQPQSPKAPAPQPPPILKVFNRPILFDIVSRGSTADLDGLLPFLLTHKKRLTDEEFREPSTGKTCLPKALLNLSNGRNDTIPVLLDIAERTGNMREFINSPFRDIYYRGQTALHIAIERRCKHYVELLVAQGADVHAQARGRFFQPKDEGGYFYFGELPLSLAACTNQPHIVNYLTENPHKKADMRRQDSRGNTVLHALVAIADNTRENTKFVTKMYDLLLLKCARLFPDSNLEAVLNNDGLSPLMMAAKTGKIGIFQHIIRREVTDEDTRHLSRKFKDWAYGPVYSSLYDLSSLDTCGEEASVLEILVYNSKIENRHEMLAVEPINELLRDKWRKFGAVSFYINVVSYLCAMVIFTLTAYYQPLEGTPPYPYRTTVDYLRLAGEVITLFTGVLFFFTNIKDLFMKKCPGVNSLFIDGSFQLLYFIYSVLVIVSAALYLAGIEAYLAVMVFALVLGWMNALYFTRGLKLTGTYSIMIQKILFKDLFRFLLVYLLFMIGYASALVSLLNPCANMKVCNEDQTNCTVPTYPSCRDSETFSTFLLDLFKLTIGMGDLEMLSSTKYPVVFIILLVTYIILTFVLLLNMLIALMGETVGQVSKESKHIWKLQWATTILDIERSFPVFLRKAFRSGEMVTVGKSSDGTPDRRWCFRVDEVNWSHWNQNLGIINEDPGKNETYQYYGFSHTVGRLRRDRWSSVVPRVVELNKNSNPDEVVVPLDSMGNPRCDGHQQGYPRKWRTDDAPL
Protocol: (§1) FIG. 6A depicts a graph of the relative change in cytosolic calcium in response to static stretch (20%, 4 second arrow) in Fluo-4-loaded CE cells treated with control or CD98 siRNA. FIG. 6B depicts a graph of the average relative increases in cytosolic calcium induced by mechanical strain in HUVE cells treated with control or CD98 siRNA. FIG. 6C depicts a graph of the relative change in cytosolic calcium in response to 4α-PDD (10 μM) in Fluo-4-loaded CE cells treated with control or CD98 siRNA. FIG. 6D depicts a graph of the average relative increases in cytosolic calcium induced by chemical strain in HUVE cells treated with control or CD98 siRNA.
(§2) Specific inhibition of mechanical activation of TRPV4 activity. Moreover, TRPV4 is specifically activated by mechanical strain (12). To examine whether CD98 transducse the signal by mechanical stimulation through TRPV4, the calcium influx by mechanical stimulation was investigated. Transient increases in intracellular calcium were detected quickly after force application in HUVE cells treated with control siRNA. […] TRPV4 is also activated by chemical stimulation such as 4α-phorbol 12, 13-didecanoate (4α-PDD).
(§3) Mechanical strain application, measurement of cell orientation, Calcium Imaging were performed as described (Thodeti et al., 2009)

[2] = molecular target: T2, binding between β1-integrin and TRPV4 (Homo sapiens, UniProt P05556+Q9HBA0); assay: Immunoprecipitation binding assay in HEK293T cells transfected with HA-linked CD98 high homology domain; format: cell-based; details: HEK293T cells, 2.5, 5 μg HA-linked CD98 high homology domain vs HA vector, 24 h
T2 construct: endogenous in cells; host or cells: HEK293T cells (ATCC); only the HA-CD98 high homology domain is transfected
T2 sequence (Q9HBA0 whole entry, the tested form may be a part): as the sequence (Q9HBA0 whole entry) above
T2 sequence (P05556 21-798): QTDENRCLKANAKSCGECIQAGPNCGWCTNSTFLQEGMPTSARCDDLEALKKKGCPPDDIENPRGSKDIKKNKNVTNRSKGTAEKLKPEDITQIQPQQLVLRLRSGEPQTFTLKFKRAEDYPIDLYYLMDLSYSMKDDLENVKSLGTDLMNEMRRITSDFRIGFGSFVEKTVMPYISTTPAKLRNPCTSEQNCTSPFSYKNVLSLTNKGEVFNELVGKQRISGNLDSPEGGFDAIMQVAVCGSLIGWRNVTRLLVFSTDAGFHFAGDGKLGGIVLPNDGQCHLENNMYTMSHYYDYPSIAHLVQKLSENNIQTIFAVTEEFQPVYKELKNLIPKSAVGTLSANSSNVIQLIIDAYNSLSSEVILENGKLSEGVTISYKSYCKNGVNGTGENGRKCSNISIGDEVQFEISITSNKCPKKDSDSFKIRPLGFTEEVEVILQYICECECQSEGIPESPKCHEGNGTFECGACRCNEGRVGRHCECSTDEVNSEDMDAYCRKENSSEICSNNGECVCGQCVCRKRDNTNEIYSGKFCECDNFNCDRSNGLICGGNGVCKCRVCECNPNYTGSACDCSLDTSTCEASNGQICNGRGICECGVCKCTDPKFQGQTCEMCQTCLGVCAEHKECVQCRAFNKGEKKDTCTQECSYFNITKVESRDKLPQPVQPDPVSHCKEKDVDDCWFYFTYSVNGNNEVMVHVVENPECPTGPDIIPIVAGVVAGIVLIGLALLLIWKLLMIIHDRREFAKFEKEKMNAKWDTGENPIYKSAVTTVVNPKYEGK
Protocol: 2.5, 5 μg HA-linked CD98 high homology domain or 5 μg HA vector was transfected into HEK293T cells, and the binding assay was performed 24 h later. The bottom panel gives the amount of each transgene in total cell lysates of respective transfectants. In the top or the 3rd panel, the lysates were immunoprecipitated with an anti-β1-integrin or TRPV4 antibody, and the amount of TRPV4 or β1-integrin in the precipitates was blotted with each antibodies. The 2nd or the 4th panel gives the amount of β1-integrin or TRPV4 in total cell lysates.
Immunoprecipitation. Cells were extracted in ice-cold TRITON™ buffer (50 mM Tris-HCL, pH 7.4, containing 150 mM NaCl, 1% TRITONX100™, 5 mM EDTA). Cell extracts were centrifuged at 10000 g for 15 min at 4° C. prior to being immunoprecipitated with each antibodies and DYNABEADS™ Magnetic Beads (Invitrogen) at 4° C. Subsequently the beads were isolated by magnet and washed five times with TRITON™ buffer and then were detected by SDS-PAGE and immunoblotting.
As described above, high homology domain of CD98 is important for the binging to either β1-integrin or TRPV4. […] Therefore, CD98 mediates the binding between β1-integrin and TRPV4 at focal adhesion through high homology domain of CD98.

HUVE cells [3] = assay: Actin rearrangement / cell orientation after 20% uniaxial cyclic strain; format: cell-based, human
Protocol: (§4) CD98 involves actin rearrangement on mechanotransduction. To confirm that CD98 translates the mechanical signal from β1-integrin to TRPV4 by mediating the binding, it was examined whether CD98 is required for the actin arrangement induced by cyclic strain. To analyze it, HUVE cells were cultured on flexible fibronectin-coated substrates and subjected to 20% uniaxial cyclic strain using a FlexrCell™ Tension Plus system. […] In contrast, this response was abolished by the treatment with CD98 siRNA (FIG. 5).
as §3
as §4, with “To” for “CD98 involves actin rearrangement on mechanotransduction. To”, “FlexrCell” for “FlexrCell™”, “Plus™” for “Plus”

TRPV4 [4] = molecular target: T3, TRPV4 (Rattus norvegicus, UniProt Q9ERZ8); details: rats; cited from earlier work
T3 construct: host or cells: rats, in vivo
T3 sequence (Q9ERZ8 whole entry): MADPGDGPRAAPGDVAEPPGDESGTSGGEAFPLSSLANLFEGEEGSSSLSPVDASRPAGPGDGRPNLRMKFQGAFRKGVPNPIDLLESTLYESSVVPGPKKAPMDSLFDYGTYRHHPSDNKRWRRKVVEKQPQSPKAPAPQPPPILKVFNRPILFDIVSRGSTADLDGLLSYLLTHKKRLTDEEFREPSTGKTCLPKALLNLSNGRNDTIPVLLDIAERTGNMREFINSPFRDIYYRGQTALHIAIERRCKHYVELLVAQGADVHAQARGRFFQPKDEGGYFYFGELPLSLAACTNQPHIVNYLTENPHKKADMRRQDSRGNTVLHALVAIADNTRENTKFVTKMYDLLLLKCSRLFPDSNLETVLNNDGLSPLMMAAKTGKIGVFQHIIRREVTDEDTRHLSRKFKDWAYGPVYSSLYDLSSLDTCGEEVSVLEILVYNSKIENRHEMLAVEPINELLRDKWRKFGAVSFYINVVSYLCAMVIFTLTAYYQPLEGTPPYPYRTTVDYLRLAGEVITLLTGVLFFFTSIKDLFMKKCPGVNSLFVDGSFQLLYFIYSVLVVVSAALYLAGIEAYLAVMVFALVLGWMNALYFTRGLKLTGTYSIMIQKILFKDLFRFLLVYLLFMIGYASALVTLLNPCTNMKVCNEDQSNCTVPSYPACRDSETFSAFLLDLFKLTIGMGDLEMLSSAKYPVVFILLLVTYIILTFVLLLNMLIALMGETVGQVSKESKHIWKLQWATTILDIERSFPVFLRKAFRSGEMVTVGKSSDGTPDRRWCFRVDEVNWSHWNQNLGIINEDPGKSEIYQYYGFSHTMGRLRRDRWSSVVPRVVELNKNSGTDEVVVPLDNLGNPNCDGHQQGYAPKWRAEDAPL

TRPV4 [5] = molecular target: T4, TRPV4 (Canis lupus familiaris, UniProt A0A8I3PAV3); details: dog; cited from earlier work
T4 construct: host or cells: dog, in vivo
T4 sequence (A0A8I3PAV3 1-828): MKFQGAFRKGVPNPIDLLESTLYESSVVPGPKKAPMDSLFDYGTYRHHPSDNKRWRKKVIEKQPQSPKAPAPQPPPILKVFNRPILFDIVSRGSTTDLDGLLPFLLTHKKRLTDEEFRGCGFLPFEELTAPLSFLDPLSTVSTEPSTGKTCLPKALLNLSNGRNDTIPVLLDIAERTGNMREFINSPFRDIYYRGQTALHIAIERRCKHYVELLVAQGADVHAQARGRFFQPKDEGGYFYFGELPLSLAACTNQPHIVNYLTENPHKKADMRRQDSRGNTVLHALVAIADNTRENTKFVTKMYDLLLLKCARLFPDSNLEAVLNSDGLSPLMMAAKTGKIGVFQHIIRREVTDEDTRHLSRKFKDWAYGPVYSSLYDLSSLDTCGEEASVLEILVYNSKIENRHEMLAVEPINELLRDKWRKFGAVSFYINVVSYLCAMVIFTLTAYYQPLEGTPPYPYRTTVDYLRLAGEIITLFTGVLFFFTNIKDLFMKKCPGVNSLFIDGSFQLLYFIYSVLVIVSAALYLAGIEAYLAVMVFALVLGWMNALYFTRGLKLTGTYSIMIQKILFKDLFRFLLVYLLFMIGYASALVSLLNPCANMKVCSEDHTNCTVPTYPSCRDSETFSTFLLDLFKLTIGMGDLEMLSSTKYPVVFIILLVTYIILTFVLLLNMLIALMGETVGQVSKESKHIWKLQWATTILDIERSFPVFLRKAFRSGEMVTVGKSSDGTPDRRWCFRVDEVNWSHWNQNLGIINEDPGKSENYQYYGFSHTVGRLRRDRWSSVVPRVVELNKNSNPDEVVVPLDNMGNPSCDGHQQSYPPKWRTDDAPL

TRPV4 [6] = molecular target: T1, TRPV4; details: human lung-on-a-chip microdevice, IL2-induced; cited from earlier work
TRPV4 [7] = molecular target: T5, TRPV4 (Mus musculus, UniProt Q9EPK8); details: mice; cited from earlier work
T5 construct: host or cells: mice, in vivo
T5 sequence (Q9EPK8 whole entry): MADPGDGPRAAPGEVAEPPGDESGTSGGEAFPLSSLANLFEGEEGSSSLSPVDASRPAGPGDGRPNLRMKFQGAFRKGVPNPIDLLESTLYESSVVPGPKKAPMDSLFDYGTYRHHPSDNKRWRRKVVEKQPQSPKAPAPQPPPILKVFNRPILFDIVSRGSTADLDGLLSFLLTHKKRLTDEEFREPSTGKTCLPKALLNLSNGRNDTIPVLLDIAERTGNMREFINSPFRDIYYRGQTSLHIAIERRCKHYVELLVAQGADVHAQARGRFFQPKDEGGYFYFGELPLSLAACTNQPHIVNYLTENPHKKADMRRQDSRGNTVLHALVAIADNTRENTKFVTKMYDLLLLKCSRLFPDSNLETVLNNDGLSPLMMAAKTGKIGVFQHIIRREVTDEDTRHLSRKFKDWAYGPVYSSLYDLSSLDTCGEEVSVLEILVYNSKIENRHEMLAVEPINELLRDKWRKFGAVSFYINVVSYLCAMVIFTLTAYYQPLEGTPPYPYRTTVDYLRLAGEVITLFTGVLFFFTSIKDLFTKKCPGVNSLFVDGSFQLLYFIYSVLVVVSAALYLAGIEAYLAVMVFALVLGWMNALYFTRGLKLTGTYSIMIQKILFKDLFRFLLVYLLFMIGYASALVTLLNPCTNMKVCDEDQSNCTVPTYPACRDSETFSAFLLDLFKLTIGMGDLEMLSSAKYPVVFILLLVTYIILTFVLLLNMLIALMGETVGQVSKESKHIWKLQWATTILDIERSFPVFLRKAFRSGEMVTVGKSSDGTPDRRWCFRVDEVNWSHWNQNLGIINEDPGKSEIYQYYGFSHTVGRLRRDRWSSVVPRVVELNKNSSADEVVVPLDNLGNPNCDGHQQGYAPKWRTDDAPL

HUVE cells [8] = assay: Scratch wound cell migration assay; format: cell-based, human; details: monolayer HUVE cells, CD98 siRNA vs control siRNA
Text: (§5) CD98 mediates the binding between TRPV4 and β1-integrin at focal adhesion. The question is what the molecular mechanism is by which CD98 mediates the signaling from β1-integrin to TRPV4. CD98 is important for surface expression and clustering of β1-integrin in MCF7 cells (11). Therefore, it was examined whether CD98 mediates the binding between β1-integrin and TRPV4 using siRNA-based knockdown of CD98. […] Thus, CD98 deficiency doesn't affect the formation of focal adhesion.
It was next asked whether CD98 serves to link β1-integrin to TRPV4. […] Thus, CD98 is not required for focal adhesion formation or function. […] Although TRPV4 expression was not decreased, TRPV4 couldn't localize at focal adhesions (data not shown).

HUVE cells [9] = assay: Localization of TRPV4, CD98, integrin and vinculin at focal adhesions (TIRF / immunofluorescence); format: cell-based, human; details: CD98 siRNA
Text: TRPV4 associates with CD98 and β1-integrin at focal adhesion. The terminal 6 amino acid residues at the carboxy end of the β1-integrin cytoplasmic mediate calcium signaling and are required for rapid force induced TRPV4-mediated calcium signaling (10). It was postulated that CD98, which binds to the last 6 carboxy terminal amino acids of β1-integrin, is involved in the TRPV4 activation by β1-integrin using genetically engineered mutant integrin constructs. First, it was confirmed that CD98 binds to integrins through the region of the β1-integrin tail using β1-integrin mutant constructs to transfect HEK293T cells followed by an immunoprecipitation assay. It was also confirmed that TRPV4 also interacts with the same region of β1-integrin using the same β1-integrin mutant constructs (data not shown). To explore the binding between those molecules, whether CD98 and β1-integrin can be co-precipitated from HUVE cell lysates using anti-TRPV4 antibody was determined (FIG. 1A). TRPV4 similarly precipitates with either anti-β1-integrin or anti-CD98 antibody (FIG. 1B). Moreover, it was confirmed that TRPV4 overlapped with CD98 at vinculin positive focal adhesions by Total Internal Reflection Fluorescence (TIRF, data not shown).
siRNA knock down of CD98. RNA interference assay was conducted with human CD98 siRNA duplexes: 5′-[…]-3′ (SEQ ID NO: 21) and 5′-[…]-3′ (SEQ ID NO: 22). […]

TRPV4 [10] = assay: Calcium imaging: calcium influx by mechanical stimulation; format: cell-based, human; details: HUVE cells, CD98 siRNA vs control siRNA, Fluo-4, static stretch 20%
Protocol: as §1, §2, §3

TRPV4 [11] = assay: TRPV4 expression in total cell lysates after CD98 knock down; format: cell-based, human; details: HUVE cells, CD98 siRNA
Protocol: (§6) The cells were transfected with control or CD98 siRNA. The amount of each component in the total cell lysates is given in the left panel. In the right lanses the cell lysates were immunoprecipitates with rabbit anti-TRPV4 (upper) or mouse anti-β1-integrin antibody (lower).
(§7) siRNA knock down of CD98. RNA interference assay was conducted with human CD98 siRNA duplexes: 5′-[…]-3′ (SEQ ID NO: 21) and 5′-[…]-3′ (SEQ ID NO: 22). Cells were transfected with 50 nM of the siRNA duplexes in Opti-MEM™ (Invitrogen) using silentFect Lipid Reagent for RNAi (BIO-RAD), according to the manufacturer's instructions.

[12] = tested on: binding between β1-integrin and TRPV4; assay: Immunoprecipitation of TRPV4 / β1-integrin binding in HUVE cells after CD98 siRNA knock down; format: cell-based, human; details: CD98 siRNA vs control siRNA, co-immunoprecipitation
Text: as §6, §5, §7
Immunoprecipitation. Cells were extracted in ice-cold TRITON™ buffer (50 mM Tris-HCL, pH 7.4, containing 150 mM NaCl, 1% TRITONX100™, 5 mM EDTA). […] Subsequently the beads were isolated by magnet and washed five times with TRITON™ buffer and then were detected by SDS-PAGE and immunoblotting.

With `CCCCCCCCCC(=O)O[C@@H]1[C@@H](C)[C@@]2(O)[C@@H](C=C(CO)C[C@@]3(O)C(=O)C(C)=C[C@@H]23)[C@@H]2C(C)(C)[C@]12OC(=O)CCCCCCCCC` [4α-PDD, 4α-phorbol 12, 13-didecanoate] as the compound, how does the “intracellular calcium in response to 4α-PDD” value (TRPV4 [1]; HUVE cells treated with either control or CD98 siRNA, 4α-PDD 10 μM) read?
The value was “rapid increase in intracellular calcium”.

Which “β1-integrin binding to TRPV4” value [2] does the source give for “high homology domain of CD98: domain of CD98 having the sequence of SEQ ID NO: 1; N-terminal region highly conserved from Drosophila to mammals (KFTGLSKEELLKVAGSPGWVRTRWALLLLFWLGWLGMLAGAVVIIVRAPRC)” here?
The value was “decreased”.

What about the “β1-integrin binding to TRPV4” value ([2]; listed as high homology domain) of the same compound?
Its value is “inhibited”.

What about the “actin rearrangements after mechanical strain” value (HUVE cells [3]; HUVE cells overexpressing high homology domain of CD98 vs vector) of the same compound?
The value was “didn't show actin rearrangements”.

With `O=C(NC1(c2ccccc2)CC1)c1c(CN2CCC(N3CCCCC3)CC2)c(-c2cccc(C(F)(F)F)c2)nc2cc(Br)ccc12` [GSK2193874] as the compound, how does the cardiogenic pulmonary edema (TRPV4 [4]) read?
Its cardiogenic pulmonary edema is “prevents cardiogenic pulmonary edema”.

What about the cardiogenic pulmonary edema (TRPV4 [5]) of the same compound?
The cardiogenic pulmonary edema was “prevents cardiogenic pulmonary edema”.

And the “pulmonary vascular leakage and lung edema development” value (TRPV4 [6])?
Its value is “prevent pulmonary vascular leakage and lung edema development”.

What about the cardiogenic pulmonary edema (TRPV4 [7]) of the same compound?
Its cardiogenic pulmonary edema is “prevents cardiogenic pulmonary edema”.

What does the source list for “CD98 siRNA: human CD98 siRNA duplexes: 5′-GAAUGGUCUGGUGAAGAUC-3′ (SEQ ID NO: 21) and 5′-GAUCUUCACCAGACCAUUC-3′ (SEQ ID NO: 22) (listed as RNA, chemistry not given here; listed as Homo sapiens)”?
cell migration in scratch wound assay (HUVE cells [8]): normally restored; also recorded: did not interfere with cell migration; TRPV4 localization at focal adhesions (HUVE cells [9]): can't localize at focal adhesion; also recorded: loss of TRPV4 from focal adhesions; also recorded: prevented; also recorded: greatly reduced the amount of both CD98 and TRPV4 within focal adhesions; recruitment of integrins or vinculin to focal adhesions (HUVE cells [9]): no effect; calcium influx of TRPV4 activation by chemical treatment (TRPV4 [1]; HUVE cells, CD98 siRNA vs control siRNA): not inhibited; also recorded: not by chemical activators; transient increase in intracellular calcium after force application (mechanical activation of TRPV4) (TRPV4 [10]): inhibited; also recorded: didn't show this response; also recorded: inhibits calcium influx; TRPV4 expression (TRPV4 [11]): not decreased; association (binding) of TRPV4 and β1-integrin [12]: can't bind to β1-integrin; also recorded: decreased association of TRPV4 and β1-integrin; also recorded: greatly reduced the amount of the binding between β1-integrin and TRPV4; stress fiber realignment (actin rearrangement) induced by cyclic strain (HUVE cells [3]; HUVE cells, CD98 siRNA vs control siRNA, 20% uniaxial cyclic strain, 2 hours): inhibited; also recorded: abolished
